Assay [1] has as its target T1, SHP2^WT (Homo sapiens, UniProt Q06124).
T1 sequence (Q06124 1-525): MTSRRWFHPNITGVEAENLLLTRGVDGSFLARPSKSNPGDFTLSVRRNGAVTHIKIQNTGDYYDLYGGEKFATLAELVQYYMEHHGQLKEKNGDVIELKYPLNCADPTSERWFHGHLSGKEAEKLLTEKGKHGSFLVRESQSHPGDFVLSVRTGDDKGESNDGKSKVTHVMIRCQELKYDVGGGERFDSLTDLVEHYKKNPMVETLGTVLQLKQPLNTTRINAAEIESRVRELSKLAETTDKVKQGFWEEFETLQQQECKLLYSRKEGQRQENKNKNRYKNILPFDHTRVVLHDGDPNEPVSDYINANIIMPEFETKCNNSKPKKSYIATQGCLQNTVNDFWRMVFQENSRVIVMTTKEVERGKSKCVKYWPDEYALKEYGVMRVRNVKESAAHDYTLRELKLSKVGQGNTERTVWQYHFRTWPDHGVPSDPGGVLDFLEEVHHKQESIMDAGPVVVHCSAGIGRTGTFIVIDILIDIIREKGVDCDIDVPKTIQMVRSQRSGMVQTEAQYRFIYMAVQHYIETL
In words: Phosphopeptide activation of SHP2. The format is biochemical.

Assay [2] has as its target T2, SHP2^S502P (Homo sapiens, UniProt Q06124, S502P).
T2 sequence (Q06124 1-525 S502P): T1 sequence (Q06124 1-525) with S502P
Description: Phosphopeptide activation of SHP2. It counts as biochemical.

In assay [3] the target is T3, SHP2^E76Q (Homo sapiens, UniProt Q06124, E76Q).
T3 sequence (Q06124 1-525 E76Q): T1 sequence (Q06124 1-525) with E76Q
Description: Phosphopeptide activation of SHP2. The format is biochemical.

A further assay relates to SHP2 (both SH2 domains). The note with it: cited from earlier work.
A further assay relates to SHP2^PTP. The note with it: substrate DiFMUP, basal (no peptide); 0.00625 nM enzyme, Hepes pH 7.2.
For assay [4], the target named is T1, SHP2^WT. The following applies: substrate DiFMUP, basal (no peptide); 2.5 nM enzyme, Hepes pH 7.2.
Assay [5] addresses T3, SHP2^E76Q. In words: Basal DiFMUP dephosphorylation kinetics, E76Q. The format is biochemical. The note with it: substrate DiFMUP, basal (no peptide); 0.05 nM enzyme, Hepes pH 7.2.
In assay [6] the target is T2, SHP2^S502P. In words: Basal DiFMUP dephosphorylation kinetics, S502P. The format is biochemical. The note with it: substrate DiFMUP, basal (no peptide); 0.025 nM enzyme, Hepes pH 7.2.

Positions count from the first letter of the chain named. Where “and” joins values, the source holds several entries; their conditions need not be identical. Equal entries are not always repeated. Square brackets hold non-standard residues; d marks the D form. Peptide text beside a SMILES is read from it. pY = N[C@@H](Cc1ccc(OP(=O)(O)O)cc1)C(=O)O

Broadly, the EC50 is the midpoint of the concentration-response curve. The low end stands for higher potency in that assay, the high end for lower potency in that assay. What is called kcat/KM is the turnover number divided by the Michaelis constant.

`CC[C@H](C)[C@H](NC(=O)[C@H](Cc1ccc(OP(=O)(O)O)cc1)NC(=O)[C@H](CC(N)=O)NC(=O)[C@H](CC(C)C)NC(=O)[C@@H](N)CO)C(=O)N[C@@H](CC(=O)O)C(=O)N[C@@H](CC(C)C)C(=O)N[C@@H](CC(=O)O)C(=O)N[C@@H](CC(C)C)C(=O)N[C@H](C(=O)N[C@@H](CCCCN)C(=O)O)C(C)C` [PY1172] (H-SLN[pY]IDLDLVK-OH): the 50% effective concentration (EC50) was 10000 nM at SHP2^WT [1], 830 nM on SHP2^S502P [2] and 350 nM at SHP2^E76Q [3].

Take “SLNY(p)IDLDLVK-dPEG8-LSTY(p)ASINFQK [PY1172-PEG-PY1222]”: the “SH2 domain occupancy and activation” value with SHP2 (both SH2 domains) was “occupies both SH2 domains and induces full activation of the phosphatase”. On SHP2^WT [1] (double-phosphorylated peptide, low-micromolar concentrations), the extent of activation entry is given as “complete activation”. Also, the “sensitivity to bisphosphorylated peptide” value at SHP2^S502P [2] (relative to SHP2^WT) and at SHP2^E76Q [3] (relative to SHP2^WT) was “greatest sensitivity” each time.

Regarding `Cc1cc(=O)oc2c(F)c(OP(=O)(O)O)c(F)cc12` [DiFMUP, 6,8-Difluoro-4-Methylumbelliferyl Phosphate], the specificity constant (kcat/KM) with SHP2^PTP was 298000 M⁻¹ s⁻¹; on SHP2^WT [4] it was 2100 M⁻¹ s⁻¹; on SHP2^E76Q [5], 71000 M⁻¹ s⁻¹ and 71200 M⁻¹ s⁻¹; on SHP2^S502P [6], 77000 M⁻¹ s⁻¹ and 76500 M⁻¹ s⁻¹.

These data come from article PMC4900891 (Biochemistry, 2016).
